The test can be described thus: Deodorization evaluation, forced-preference panel test of acetic acid malodor on cotton balls. The following applies: approx. 50 mg acetic acid on cotton ball in closed 32 oz jar; sprayed with 0.25 g, 0.5 g, 2.0 g and 5 g of approx. 0.8% by weight active in water; equilibrated 2 hrs; ten panelists; FIG. 1. The procedure:
Deodorization Evaluations. Forced Preference Tests.
In the deodorization studies, two substances were tested for their ability to deodorize malodor: 1) Soyaethyl Morpholinium Ethosulfate (U.S. Pat. No. 4,851,214); and 2) Soyamidopropyl Ethylmorpholinium Ethosulfate (from this invention). These two products are Products 1 and 2, respectively, in FIG. 1. Both materials contain a quaternized morpholinium functionality within the deodorant molecule. All test formulations were approximately 0.8% by weight of active deodorizer/sequestrant in water.
Both products were tested as follows: Approximately 50 milligrams of acetic acid were placed on cotton balls (approximately 0.63 g in weight). The cotton balls were placed in 32 oz plastic jars, one per jar, and the lids were screwed on. After equilibrating for 4 hours the cotton balls were sprayed with predetermined amounts (0.25 g, 0.5 g, 2.0 g and 5 g) of deodorizing spray formulations and placed back in closed containers where they equilibrated for 2 hrs. In forced-preference testing, ten panelists were asked to open each jar and rate each on a scale from 1 to 10 with 10 being the highest level of acetic acid detected. The results of those ratings appear in FIG. 1 where the ratings given for each test substance is graphed versus the weight in grams of deodorizing formulations that had been applied to each cotton ball. […]

This note sets out measurements from US12502344B2, “Deodorants comprising alkylamido and alkenylamido-morpholinium compositions” (Colonial Chemical, Inc., priority 2021, dated 2025).

Consider `CCCCCCCC/C=C\CCCCCCCC[N+]1(CC)CCOCC1` [Product 1, Soyaethyl Morpholinium Ethosulfate], for which the “perceivable malodor (odor rating on a scale from 1 to 10, 10 being the highest level of acetic acid detected)” value was “reduced the perceivable malodor in a concentration-dependent fashion”.
The result for “Soyamidopropyl Ethylmorpholinium Ethosulfate [Product 2]” reads “reduced the perceivable malodor in a concentration-dependent fashion”.
